Measurements taken from US8703697B2, “Method for treating early severe diffuse acute respiratory distress syndrome” (priority 2011, dated 2014).

Columns and labels:
severe diffuse ARDS = test: Case observation: ARDS patient sedated with clonidine under spontaneous ventilation-pressure support and high PEEP; type: in vivo, human
sedation = conditions: continuous infusion for sedation; cited from earlier work

Compound: Clc1cccc(Cl)c1N=C1NCCN1 [clonidine]
- P/F (PaO2/FiO2) (severe diffuse ARDS; human, in vivo): 262
- Ramsay score (severe diffuse ARDS; under clonidine 1 μg·kg-1·h-1, progressively lowered from Ramsay 5-6, patient communicated with family on D5): 2-3

Compound: Cc1cccc([C@H](C)c2cnc[nH]2)c1C [dexmedetomidine]
- dosage at which ceiling effect is observed (sedation): 1.5 µg/kg/h

Compound: CC(CCc1ccc(O)cc1)NCCc1ccc(O)c(O)c1 (centres unmarked) [dobutamine]
- Superior vena cava O2 saturation (severe diffuse ARDS; at all intervals, dobutamine D3 to D6, 2 then 1 μg·kg-1·min-1): > 70%

Compound: NC[C@H](O)c1ccc(O)c(O)c1 [noradrenaline]
- mean arterial pressure (severe diffuse ARDS; noradrenaline 0.45 μg·kg-1·min-1 lowered to 0.01 μg·kg-1·min-1, forced diuresis): > 100 mm Hg
